Measurements taken from paper PMC7216467, “Evaluation of neuroprotective and anti-amnesic effects of Elaeagnus umbellata Thunb. On scopolamine-induced memory impairment in mice” (BMC Complementary Medicine and Therapies, 2020).

Assays:
[1] = system: scopolamine-induced cognitive impairment in mice; test: Novel object recognition test, scopolamine-induced amnesia; type: in vivo
Description: (§1) After the acclimatization period, in scopolamine-induced amnesia test the Albino male mice were randomly divided into six groups (n = 6) to study the effect of CHF. […] The doses of tested solutions of CHF. […] The treatments were continued for 8 days. In the Y-maze and Novel object recognition tests, scopolamine (1 mg/kg, i.p.) was given to the different groups only on the 8th day, 30 min after the respective treatments, to induce cognitive deficit in mice. One hour after administration of the drugs all animals were subjected to Y-maze and Novel object recognition test following standard procedure.
The detail methodology published, was followed while performing the novel object recognition (NORT) test. NORT consisting of habituation, sample, and test phases. On the day before test, mice were allowed to explore the box (without any object) for 2 min. On the day of test after habituation the sample phase was carried out 60 min after the last treatment on the 8th day. In sample phase each mouse was placed in an open field with two identical objects (plastic ball) for 5 min. The mouse was then returned to its home cage. The apparatus was comprised of a white coloured plywood box (40 cm × 40 cm × 66 cm) with a network floors that could be effortlessly cleaned (with 70%v/v ethanol) after every trial. The apparatus was illuminated by a 60 W light suspended 50 cm over the crate. The arena and objects were cleaned with 70% v/v ethanol between trials to avoid olfactory cues. For short-term memory, the test phase was performed 5 min after the sample phase. In the test phase, each mouse was placed again in the open field in which one of the identical objects had been replaced with a novel object (plastic square). The location of the object was counterbalanced so that one half of the mice in each group saw the novel object on the left side of the box arena, and the other half saw the novel object on the right side of the box arena to eliminate bias of sides. NORT can also be used for encoding and retrieval of spatial memory (long-term memory). A wash-out period of 5 days was allowed before the NORT to assess long-term memory in mice. The procedure was the same as that for short-term memory except that mice were presented in the test phase 24 h after the sample phase exposure. The time spent exploring each object in each phase was recorded manually using a stopwatch. A mouse was scored as exploring when its head was oriented towards the object within a distance of 2 cm or when the nose was in contact with the object. Parameters including the time (in seconds) spent exploring familiar (F) object, time (in seconds) spent exploring the novel (N) object, and total time (in seconds) spent exploring both objects (N + F) were measured separately.

BChE = target: T1, BChE (Mus musculus, UniProt Q03311); type: in vivo; details: ex vivo, NORT animals, vs scopolamine treated group
T1 construct: supernatants were collected from homogenized part of brain tissues; from tissue; host or cells: mouse frontal cortex and hippocampus homogenate supernatant
Description: (§2) The frontal cortex (FC) and hippocampus (HC) were dissected out in ice cold 0.1 M phosphate buffer saline (pH 8.0). The tissues were weighed and 20 mg tissue/mL homogenate of brain samples was prepared in phosphate buffer (pH 8.0). The homogenates were centrifuged at 10,000 rpm for 10 min at 4 °C, and the resulting supernatant was used for the estimation of anti-cholinesterase activity following Ellman’s and antioxidants assays.
(§3) Ex vivo analysis of cholinesterase inhibitory potentials was also measured to check the cholinergic hypo function in animal model using the isolated compound CGA and CHF extract.

AChE = target: T2, AChE (Mus musculus, UniProt P21836); type: in vivo; details: ex vivo, NORT animals, vs scopolamine treated group
T2 construct: supernatants were collected from homogenized part of brain tissues; from tissue; host or cells: mouse frontal cortex and hippocampus homogenate supernatant
T2 sequence (P21836 32-614): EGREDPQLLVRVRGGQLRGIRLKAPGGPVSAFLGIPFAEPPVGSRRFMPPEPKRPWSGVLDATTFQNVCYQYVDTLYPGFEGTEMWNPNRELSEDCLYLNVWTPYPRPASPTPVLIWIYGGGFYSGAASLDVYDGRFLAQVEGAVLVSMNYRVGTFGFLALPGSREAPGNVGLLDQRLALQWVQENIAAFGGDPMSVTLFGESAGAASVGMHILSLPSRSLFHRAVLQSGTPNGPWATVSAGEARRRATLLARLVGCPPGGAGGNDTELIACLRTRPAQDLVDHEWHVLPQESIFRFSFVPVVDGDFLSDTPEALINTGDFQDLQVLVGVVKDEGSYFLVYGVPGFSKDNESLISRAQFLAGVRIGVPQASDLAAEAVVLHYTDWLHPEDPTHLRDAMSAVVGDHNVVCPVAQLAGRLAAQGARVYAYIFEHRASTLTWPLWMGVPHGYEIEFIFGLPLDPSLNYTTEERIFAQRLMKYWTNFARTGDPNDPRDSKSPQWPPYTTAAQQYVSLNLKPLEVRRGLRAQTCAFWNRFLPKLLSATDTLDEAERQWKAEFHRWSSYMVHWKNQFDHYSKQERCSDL
Description: as §2, §3

[2] = target: T3, Acetyl cholinesterase (Electron-eel Type, VI-S) (Electrophorus electricus, UniProt O42275); test: biochemical; type: biochemical
T3 construct: purchased Sigma-Aldrich, Germany
Description: Ellman assay was used to evaluate E. umbellata fruit extracts and isolated compounds for their anticholinesterase potentials. About 205 μL extract/compound solutions and 5 μL of AChE (0.03 U/mL)/BChE (0.01 U/mL) along with catalyst DTNB (5 μL) were taken in a cuvette and kept at 30 °C in hot water bath for 15 min. […] As a negative control solution all the above mentioned components except extracts and isolated compounds were mixed in the mentioned order.
V is inhibitor dependent rate of reaction while, Vmax is inhibitor independent rate of reaction.

mice = details: Swiss albino, mouse, in vivo, po, 72 h
Description: All animals were then treated orally with different doses of CHF. […] Immediately after dosing, the mice were observed continuously for 4 h for symptoms of toxicity such as motor activity, convulsions, muscle spasm, tremors, sedation, lacrimation, hypnosis, diarrhoea, salivation, and loss of righting reflex. Mice were then kept under observation up to 72 h for any mortality. The CHF. […] Therefore, according to OECD guidelines, CHF.

[3] = system: scopolamine-induced cognitive impairment in mice; test: Y-maze test, scopolamine-induced amnesia; type: in vivo
Description: as §1
The Y-Maze test was designed to evaluate the short term memory in experimental mice using reported procedure. Y-maze apparatus is Y shaped with three arms of equivalent size, labelled as A, B, and C. Each arm was 20 cm long, 6 cm wide and 15.5 cm high and was oriented at an angle of 120° from the other two. For each animal the Y maze testing was carried out for 5 min. Mice were placed in one arm, and the order and number of arm entries were recorded. An arm entry was considered to be complete when the hind paws of the mice was completely inside a given arm while alternation was defined as consecutive entries by a mouse into the three different arms. The arena was cleaned using 70% v/v ethanol between each trial to avoid olfactory cues. The escape latency (second) on day 1–5 were recorded for all animals. At the end of 5th day, the spontaneous alteration behavior study was conducted. In spontaneous alteration study, each animal was placed at the center of the Y-Maze apparatus and allowed to move freely through the maze. The series of arm entries were visually recorded. To start behavioral test the mice was set in one arm and recorded the number of arm entries, same arm returns (SAR), and alternate arm returns (AAR) were measured. Percent spontaneous alternation performance (SAP) was calculated by the following formula: 5 %SAP=Active alterationstotal alterations/Possible alterationstotalarmentries−2x100

[4] = Ex vivo brain DPPH free radicals scavenging activity; type: in vivo, mice
Description: as §2

[5] = vs scopolamine (1 mg/kg) group, CHF. Ext 200 mg/kg, CGA 10 and 30 mg/kg, donepezil 2 mg/kg

T3 sequence (O42275 24-633): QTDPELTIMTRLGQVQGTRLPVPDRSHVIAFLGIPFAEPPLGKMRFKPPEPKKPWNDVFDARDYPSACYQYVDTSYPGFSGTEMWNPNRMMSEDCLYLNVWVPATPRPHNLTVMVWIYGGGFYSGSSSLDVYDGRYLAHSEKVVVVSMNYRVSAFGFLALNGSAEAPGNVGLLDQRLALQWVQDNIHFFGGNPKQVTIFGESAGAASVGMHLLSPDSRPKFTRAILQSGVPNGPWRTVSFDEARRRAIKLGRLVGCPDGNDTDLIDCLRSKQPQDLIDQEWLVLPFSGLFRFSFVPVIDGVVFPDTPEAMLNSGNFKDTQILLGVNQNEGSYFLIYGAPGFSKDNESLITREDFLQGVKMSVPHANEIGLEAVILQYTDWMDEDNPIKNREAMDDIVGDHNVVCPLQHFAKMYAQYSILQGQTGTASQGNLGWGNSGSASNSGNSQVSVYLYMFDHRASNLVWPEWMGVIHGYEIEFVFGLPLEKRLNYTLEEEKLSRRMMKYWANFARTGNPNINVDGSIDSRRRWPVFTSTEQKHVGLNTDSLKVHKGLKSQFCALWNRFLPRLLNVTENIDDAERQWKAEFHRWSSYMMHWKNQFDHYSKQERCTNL
T1 sequence (Q03311 30-603): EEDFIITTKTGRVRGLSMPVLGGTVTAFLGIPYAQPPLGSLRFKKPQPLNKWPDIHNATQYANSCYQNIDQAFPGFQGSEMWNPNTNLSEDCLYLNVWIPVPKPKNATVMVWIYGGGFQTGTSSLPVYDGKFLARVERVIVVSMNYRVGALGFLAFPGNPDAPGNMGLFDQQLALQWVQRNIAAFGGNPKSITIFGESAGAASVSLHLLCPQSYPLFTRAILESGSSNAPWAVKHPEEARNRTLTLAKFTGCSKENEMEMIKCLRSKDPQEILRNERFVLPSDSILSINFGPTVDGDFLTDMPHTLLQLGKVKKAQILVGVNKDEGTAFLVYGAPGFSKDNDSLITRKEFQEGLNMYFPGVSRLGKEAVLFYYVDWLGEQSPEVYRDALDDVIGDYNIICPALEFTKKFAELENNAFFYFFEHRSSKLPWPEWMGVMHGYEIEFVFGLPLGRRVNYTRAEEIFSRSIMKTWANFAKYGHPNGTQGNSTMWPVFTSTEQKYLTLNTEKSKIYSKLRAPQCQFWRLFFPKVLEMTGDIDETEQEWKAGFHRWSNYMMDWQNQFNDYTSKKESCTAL

O=C(/C=C/c1ccc(O)c(O)c1)O[C@@H]1C[C@](O)(C(=O)O)C[C@@H](O)[C@H]1O [Compound-I, Chlorogenic acid]
time for exploration of novel object, test phase, long term memory ([1]; CHF. Ext 100 & 200 mg/kg, CGA 10 & 30 mg/kg, donepezil 2 mg/kg): significant (*p < 0.05, **p < 0.01) increase | %DI, long term memory ([1]; CHF. Ext 100, 200 mg/kg, CGA 10 & 30 mg/kg, donepezil 2 mg/kg): significant (*p < 0.05, **p < 0.01) increase | time with novel object, test phase, short term memory ([1]; vs scopolamine group (*p < 0.05, **p < 0.01), CHF. Ext 50, 100, 200 mg/kg, CGA 10 and 30 mg/kg, donepezil 2 mg/kg): more time with novel object | time for exploration of two objects, sample phase, short term memory ([1]; vs scopolamine treated group): no significant difference | total time spent exploring the two identical objects, sample phase, long term memory ([1]; vs scopolamine treated group): no significant differences | % BChE activity in cortex and hippocampus (BChE): significantly (***p < 0.001; **p < 0.01) lower | % AChE activity in cortex and hippocampus (AChE): significantly (***p < 0.001; **p < 0.01) lower | % AChE Mean ± SEM ([2]; 31.05 µg/mL): 50±0.4^ ns % | % AChE Mean ± SEM ([2]; 62.5 µg/mL): 59±0.3 % | % AChE Mean ± SEM ([2]; 125 µg/mL): 68±0.4 % | % AChE Mean ± SEM ([2]; 250 µg/mL): 76±0.5 % | % AChE Mean ± SEM ([2]; 500 µg/mL): 82±0.1 % | % AChE Mean ± SEM ([2]; 1000 µg/mL, listed as Compound -I): 90±0.2^ns % | % AChE Mean ± SEM ([2]; 1000 µg/mL, listed as Compound I): 90 ± 0.2% | IC50 ([2]; linear regression, read-out: AChE IC50 (converted)): 87.5 µM | dose range that remained safe and nontoxic (mice): up to 300 mg/kg | escape latency ([3]; day 1-5, vs scopolamine treated group): significant decline (p < 0.001) | total numbers of entries into arms ([3]; treated groups compared to control group): non-significant (p > 0.05) decrease | percentage of alternate arm returns [3, 5]: significant (*p<0.05; **p < 0.01) increase | percentage of same arm returns [3, 5]: significant (p < 0.01) reduction | % anti-radicals activities (DPPH) in cortex ([4]; NORT animals, cortex): 51.43 ± 2.88% | % anti-radicals activities (DPPH) in hippocampus ([4]; NORT animals, hippocampus): 65.36 ± 1.45% | % DPPH inhibition potential in cortex ([4]; Y-maze test animals, frontal cortex): 47.85 ± 2.11% | % DPPH inhibition potential in hippocampus ([4]; Y-maze test animals, hippocampus): 44.12 ± 1.77%
